Data taken from ChEMBL document CHEMBL1153751, “Biologically active tetranorditerpenoids from the fungus Sclerotinia homoeocarpa causal agent of dollar spot in turfgrass” (J Nat Prod, 2009).
≈ marks a conversion by molar mass, not a printed value. Calls of active or inactive are those of the source. The calls are words filed in the database; no cut-off is given here.

System: Agrostis stolonifera
Assay: Phytotoxicity against Agrostis stolonifera at 0.001 mg/ml
Assay type: functional, organism-based
Settings: not given

SMILES	Activity
C[C@@]12C=C[C@H](O)[C@]3(C)C(=O)O[C@H](C=C4COC(=O)C=C41)C23 (stereo not given in full)	inactive
C[C@]12CC[C@@H](O)[C@]3(C)C(=O)O[C@@H](C13)[C@H]1O[C@]13COC(=O)C=C32 (stereo not given in full)	inactive
C[C@]12CCC[C@](C)(C(=O)O)[C@@H]1C=C[C@]1(O)COC(=O)C[C@H]21 [OIDIOLACTONE E]	inactive
C[C@@]12C[C@@H](O)C[C@]3(C)C4=CC(=O)OC[C@]45O[C@@H]5[C@@H](OC1=O)C23 (stereo not given in full)	inactive

System: Vero
Assay: Cytotoxicity against african green monkey Vero cells at 4760 ng/ml after 48 hrs by neutral red dye staining
Assay type: cell-based
Settings: Chlorocebus sabaeus

SMILES	inhibition (INH)
C[C@]12CC[C@@H](O)[C@]3(C)C(=O)O[C@@H](C13)[C@H]1O[C@]13COC(=O)C=C32 (stereo not given in full)	Not Active

System: Lactuca sativa
Assay: Phytotoxicity against Lactuca sativa at 0.01 mg/ml
Assay type: functional, organism-based
Settings: not given

SMILES	Activity
C[C@@]12C=C[C@H](O)[C@]3(C)C(=O)O[C@H](C=C4COC(=O)C=C41)C23 (stereo not given in full)	Active
C[C@]12CC[C@@H](O)[C@]3(C)C(=O)O[C@@H](C13)[C@H]1O[C@]13COC(=O)C=C32 (stereo not given in full)	inactive

System: Agrostis stolonifera
Assay: Phytotoxicity against Agrostis stolonifera at 0.1 mg/ml
Assay type: functional, organism-based
Settings: not given

SMILES	Activity
C[C@@]12C=C[C@H](O)[C@]3(C)C(=O)O[C@H](C=C4COC(=O)C=C41)C23 (stereo not given in full)	Active
C[C@@]12C[C@@H](O)C[C@]3(C)C4=CC(=O)OC[C@]45O[C@@H]5[C@@H](OC1=O)C23 (stereo not given in full)	Active

System: SK-OV-3
Assay: Cytotoxicity against human SKOV3 cells after 48 hrs by neutral red dye staining
Assay type: functional, cell-based
Settings: SK-OV-3, 48 h

SMILES	IC50
C[C@@]12C=C[C@H](O)[C@]3(C)C(=O)O[C@H](C=C4COC(=O)C=C41)C23 (stereo not given in full)	1.1 mg/L (≈ 3.82 µM)
C[C@]12CCC[C@](C)(C(=O)O)[C@@H]1C=C[C@]1(O)COC(=O)C[C@H]21 [OIDIOLACTONE E]	6.3 mg/L (≈ 21.4 µM)
C[C@@]12C[C@@H](O)C[C@]3(C)C4=CC(=O)OC[C@]45O[C@@H]5[C@@H](OC1=O)C23 (stereo not given in full)	10 mg/L (≈ 32.6 µM)

System: KB
Assay: Cytotoxicity against human KB cells at 10 ug/ml after 48 hrs by neutral red dye staining
Assay type: functional, cell-based
Settings: not given

SMILES	inhibition
C[C@]12CC[C@@H](O)[C@]3(C)C(=O)O[C@@H](C13)[C@H]1O[C@]13COC(=O)C=C32 (stereo not given in full)	inactive

System: Vero
Assay: Cytotoxicity against african green monkey Vero cells after 48 hrs by neutral red dye staining
Assay type: cell-based
Settings: Chlorocebus sabaeus

SMILES	IC50
C[C@@]12C=C[C@H](O)[C@]3(C)C(=O)O[C@H](C=C4COC(=O)C=C41)C23 (stereo not given in full)	0.95 mg/L (≈ 3.3 µM)
C[C@]12CCC[C@](C)(C(=O)O)[C@@H]1C=C[C@]1(O)COC(=O)C[C@H]21 [OIDIOLACTONE E]	1.7 mg/L (≈ 5.78 µM)
C[C@@]12C[C@@H](O)C[C@]3(C)C4=CC(=O)OC[C@]45O[C@@H]5[C@@H](OC1=O)C23 (stereo not given in full)	3.3 mg/L (≈ 10.8 µM)

System: Plasmodium falciparum
Assay: microbe, parasite or virus in culture
Settings: W2, 72 h

SMILES	IC50
C[C@@]12C=C[C@H](O)[C@]3(C)C(=O)O[C@H](C=C4COC(=O)C=C41)C23 (stereo not given in full)	0.032 mg/L (≈ 0.111 µM)
C[C@]12CCC[C@](C)(C(=O)O)[C@@H]1C=C[C@]1(O)COC(=O)C[C@H]21 [OIDIOLACTONE E]	0.19 mg/L (≈ 0.645 µM)

System: Plasmodium falciparum
Assay: Antiplasmodial activity against chloroquine-resistant Plasmodium falciparum W2 assessed as LDH activity at 4760 ng/ml after 72 hrs by malstat reagent method
Assay type: functional, organism-based
Settings: not given

SMILES	inhibition
C[C@]12CC[C@@H](O)[C@]3(C)C(=O)O[C@@H](C13)[C@H]1O[C@]13COC(=O)C=C32 (stereo not given in full)	inactive

System: SK-OV-3
Assay: Cytotoxicity against human SKOV3 cells at 10 ug/ml after 48 hrs by neutral red dye staining
Assay type: functional, cell-based
Settings: not given

SMILES	inhibition
C[C@]12CC[C@@H](O)[C@]3(C)C(=O)O[C@@H](C13)[C@H]1O[C@]13COC(=O)C=C32 (stereo not given in full)	inactive

System: Lactuca sativa
Assay: Phytotoxicity against Lactuca sativa at 1 mg/ml
Assay type: functional, organism-based
Settings: not given

SMILES	Activity
C[C@@]12C=C[C@H](O)[C@]3(C)C(=O)O[C@H](C=C4COC(=O)C=C41)C23 (stereo not given in full)	Active
C[C@]12CC[C@@H](O)[C@]3(C)C(=O)O[C@@H](C13)[C@H]1O[C@]13COC(=O)C=C32 (stereo not given in full)	Active
C[C@]12CCC[C@](C)(C(=O)O)[C@@H]1C=C[C@]1(O)COC(=O)C[C@H]21 [OIDIOLACTONE E]	Active
C[C@@]12C[C@@H](O)C[C@]3(C)C4=CC(=O)OC[C@]45O[C@@H]5[C@@H](OC1=O)C23 (stereo not given in full)	Active

System: not listed separately
Assay: Cytotoxicity against pig LLC-PK11 cells at 10 ug/ml after 48 hrs by neutral red dye staining
Assay type: functional, cell-based, Sus scrofa
Settings: not given

SMILES	Cytotoxicity at 10 ug/ml
C[C@]12CC[C@@H](O)[C@]3(C)C(=O)O[C@@H](C13)[C@H]1O[C@]13COC(=O)C=C32 (stereo not given in full)	Not Active

System: Lemna aequinoctialis
Assay: Phytotoxicity against Lemna paucicostata after 7 days
Assay type: functional, organism-based
Settings: 168 h, read-out: I50

SMILES	IC50
C[C@@]12C=C[C@H](O)[C@]3(C)C(=O)O[C@H](C=C4COC(=O)C=C41)C23 (stereo not given in full)	0.79 µM
C[C@@]12C[C@@H](O)C[C@]3(C)C4=CC(=O)OC[C@]45O[C@@H]5[C@@H](OC1=O)C23 (stereo not given in full)	3.32 µM

System: not listed separately
Assay: Cytotoxicity against pig LLC-PK11 cells after 48 hrs by neutral red dye staining
Assay type: functional, cell-based
Settings: Sus scrofa, LLC-PK11, 48 h

SMILES	IC50
C[C@@]12C=C[C@H](O)[C@]3(C)C(=O)O[C@H](C=C4COC(=O)C=C41)C23 (stereo not given in full)	1.1 mg/L (≈ 3.82 µM)
C[C@]12CCC[C@](C)(C(=O)O)[C@@H]1C=C[C@]1(O)COC(=O)C[C@H]21 [OIDIOLACTONE E]	4.8 mg/L (≈ 16.3 µM)
C[C@@]12C[C@@H](O)C[C@]3(C)C4=CC(=O)OC[C@]45O[C@@H]5[C@@H](OC1=O)C23 (stereo not given in full)	4.2 mg/L (≈ 13.7 µM)

System: KB
Assay: Cytotoxicity against human KB cells after 48 hrs by neutral red dye staining
Assay type: functional, cell-based
Settings: not given

SMILES	IC50
C[C@@]12C=C[C@H](O)[C@]3(C)C(=O)O[C@H](C=C4COC(=O)C=C41)C23 (stereo not given in full)	0.6 mg/L (≈ 2.08 µM)
C[C@]12CCC[C@](C)(C(=O)O)[C@@H]1C=C[C@]1(O)COC(=O)C[C@H]21 [OIDIOLACTONE E]	4.5 mg/L (≈ 15.3 µM)
C[C@@]12C[C@@H](O)C[C@]3(C)C4=CC(=O)OC[C@]45O[C@@H]5[C@@H](OC1=O)C23 (stereo not given in full)	6.8 mg/L (≈ 22.2 µM)

System: BT-549
Assay: Cytotoxicity against human BT549 cells after 48 hrs by neutral red dye staining
Assay type: functional, cell-based
Settings: BT-549, 48 h

SMILES	IC50
C[C@@]12C=C[C@H](O)[C@]3(C)C(=O)O[C@H](C=C4COC(=O)C=C41)C23 (stereo not given in full)	1.2 mg/L (≈ 4.16 µM)
C[C@]12CCC[C@](C)(C(=O)O)[C@@H]1C=C[C@]1(O)COC(=O)C[C@H]21 [OIDIOLACTONE E]	9 mg/L (≈ 30.6 µM)
C[C@@]12C[C@@H](O)C[C@]3(C)C4=CC(=O)OC[C@]45O[C@@H]5[C@@H](OC1=O)C23 (stereo not given in full)	10 mg/L (≈ 32.6 µM)

System: Agrostis stolonifera
Assay: Phytotoxicity against Agrostis stolonifera at 0.01 mg/ml
Assay type: functional, organism-based
Settings: not given

SMILES	Activity
C[C@]12CC[C@@H](O)[C@]3(C)C(=O)O[C@@H](C13)[C@H]1O[C@]13COC(=O)C=C32 (stereo not given in full)	inactive

System: Plasmodium falciparum
Assay: Antiplasmodial activity against chloroquine-sensitive Plasmodium falciparum D6 assessed as LDH activity at 4760 ng/ml after 72 hrs by malstat reagent method
Assay type: functional, organism-based
Settings: not given

SMILES	inhibition
C[C@]12CC[C@@H](O)[C@]3(C)C(=O)O[C@@H](C13)[C@H]1O[C@]13COC(=O)C=C32 (stereo not given in full)	inactive

System: BT-549
Assay: Cytotoxicity against human BT549 cells at 10 ug/ml after 48 hrs by neutral red dye staining
Assay type: functional, cell-based
Settings: not given

SMILES	inhibition
C[C@]12CC[C@@H](O)[C@]3(C)C(=O)O[C@@H](C13)[C@H]1O[C@]13COC(=O)C=C32 (stereo not given in full)	inactive

System: Lactuca sativa
Assay: Phytotoxicity against Lactuca sativa at 0.1 mg/ml
Assay type: functional, organism-based
Settings: not given

SMILES	Activity
C[C@@]12C=C[C@H](O)[C@]3(C)C(=O)O[C@H](C=C4COC(=O)C=C41)C23 (stereo not given in full)	Active
C[C@@]12C[C@@H](O)C[C@]3(C)C4=CC(=O)OC[C@]45O[C@@H]5[C@@H](OC1=O)C23 (stereo not given in full)	Active

System: SK-MEL
Assay: Cytotoxicity against human SK-MEL cells at 10 ug/ml after 48 hrs by neutral red dye staining
Assay type: functional, cell-based
Settings: not given

SMILES	inhibition
C[C@]12CC[C@@H](O)[C@]3(C)C(=O)O[C@@H](C13)[C@H]1O[C@]13COC(=O)C=C32 (stereo not given in full)	inactive

System: Plasmodium falciparum
Assay: microbe, parasite or virus in culture
Settings: D6, 72 h

SMILES	IC50
C[C@]12CCC[C@](C)(C(=O)O)[C@@H]1C=C[C@]1(O)COC(=O)C[C@H]21 [OIDIOLACTONE E]	0.25 mg/L (≈ 0.849 µM)
C[C@@]12C[C@@H](O)C[C@]3(C)C4=CC(=O)OC[C@]45O[C@@H]5[C@@H](OC1=O)C23 (stereo not given in full)	0.74 mg/L (≈ 2.42 µM)

System: SK-MEL
Assay: Cytotoxicity against human SK-MEL cells after 48 hrs by neutral red dye staining
Assay type: functional, cell-based
Settings: not given

SMILES	IC50
C[C@@]12C=C[C@H](O)[C@]3(C)C(=O)O[C@H](C=C4COC(=O)C=C41)C23 (stereo not given in full)	0.12 mg/L (≈ 0.416 µM)
C[C@]12CCC[C@](C)(C(=O)O)[C@@H]1C=C[C@]1(O)COC(=O)C[C@H]21 [OIDIOLACTONE E]	0.72 mg/L (≈ 2.45 µM)
C[C@@]12C[C@@H](O)C[C@]3(C)C4=CC(=O)OC[C@]45O[C@@H]5[C@@H](OC1=O)C23 (stereo not given in full)	1.1 mg/L (≈ 3.59 µM)

System: Agrostis stolonifera
Assay: Phytotoxicity against Agrostis stolonifera at 1 mg/ml
Assay type: functional, organism-based
Settings: not given

SMILES	Activity
C[C@@]12C=C[C@H](O)[C@]3(C)C(=O)O[C@H](C=C4COC(=O)C=C41)C23 (stereo not given in full)	Active
C[C@]12CC[C@@H](O)[C@]3(C)C(=O)O[C@@H](C13)[C@H]1O[C@]13COC(=O)C=C32 (stereo not given in full)	Active
C[C@]12CCC[C@](C)(C(=O)O)[C@@H]1C=C[C@]1(O)COC(=O)C[C@H]21 [OIDIOLACTONE E]	Active
C[C@@]12C[C@@H](O)C[C@]3(C)C4=CC(=O)OC[C@]45O[C@@H]5[C@@H](OC1=O)C23 (stereo not given in full)	Active

System: Lactuca sativa
Assay: Phytotoxicity against Lactuca sativa at 0.001 mg/ml
Assay type: functional, organism-based
Settings: not given

SMILES	Activity
C[C@@]12C=C[C@H](O)[C@]3(C)C(=O)O[C@H](C=C4COC(=O)C=C41)C23 (stereo not given in full)	inactive
C[C@]12CC[C@@H](O)[C@]3(C)C(=O)O[C@@H](C13)[C@H]1O[C@]13COC(=O)C=C32 (stereo not given in full)	inactive
C[C@]12CCC[C@](C)(C(=O)O)[C@@H]1C=C[C@]1(O)COC(=O)C[C@H]21 [OIDIOLACTONE E]	inactive
C[C@@]12C[C@@H](O)C[C@]3(C)C4=CC(=O)OC[C@]45O[C@@H]5[C@@H](OC1=O)C23 (stereo not given in full)	inactive
